From patent US20240025906A1 (NEURON23, INC., priority 2022, published 2024)
Where two headings read alike, the source gives them in different places.

Experiments:
TYK2 JH2 = molecular target: T1, TYK2 JH2 (Homo sapiens, UniProt P29597); experiment: TYK2 JH2 binding assay (KINOMEscan KdELECT competitive binding); conditions: TYK2 JH2 domain
T1 construct: purchased DiscoverX (KINOMEscan KdELECT service); host or cells: E. coli BL21-derived (T7 phage display) or HEK-293
Outline: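 Beads carrying a biotinylated ligand were mixed with tagged JH2 kinase and compound (11 points, 3-fold steps, 0.9% DMSO) and shaken 1 h at room temperature. After washing, kinase was released with 0.5 μM untagged ligand over 30 min and measured by qPCR to derive Kd.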

[1] = test system: JAK1/TYK2 pSTAT5 (Tyr694/699) in THP-1 cell line; experiment: IFNa-stimulated JAK1/TYK2 pSTAT5 (Tyr694/699) inhibition cellular assay, AlphaLISA; type: cell-based; conditions: THP-1 cells, AlphaLISA (Assay B)
Outline: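 The readout is AlphaLISA signal at 615 nm for phospho-STAT5 in THP-1 lysates after IFNa stimulation (added at 100 ng/mL, 30 min, 37 °C). Cells had compound for 1 h beforehand across eight 6-fold concentrations up to 10000 nM final. IC50s are 4PL fits with bottom and Hill slope constrained.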

[2] = DiscoverX KINOMEscan KdELECT (Assay A), read-out: Biochemical TYK2_DiscoverX_JH2_BND_Kd
[3] = Homo sapiens, IFNa-stimulated, read-out: Cellular_THP1_IFNa-pSTATS_TYK2
[4] = KINOMEscan KdELECT (Assay A), read-out: Biochemical TYK2_JH2_Kd
[5] = Homo sapiens, IFNa-stimulated, read-out: Cellular THP1_IFNa-pSTATS_IC50
[6] = KINOMEscan KdELECT (Assay A), read-out: Biochemical TYK2_DiscoverX_JH2_BND_Kd
[7] = Homo sapiens, IFNa-stimulated pSTAT5 (Tyr694/699), read-out: Cellular_THP1_IFNa-pSTATS_TYK2

T1 sequence (P29597 589-875 limits assumed): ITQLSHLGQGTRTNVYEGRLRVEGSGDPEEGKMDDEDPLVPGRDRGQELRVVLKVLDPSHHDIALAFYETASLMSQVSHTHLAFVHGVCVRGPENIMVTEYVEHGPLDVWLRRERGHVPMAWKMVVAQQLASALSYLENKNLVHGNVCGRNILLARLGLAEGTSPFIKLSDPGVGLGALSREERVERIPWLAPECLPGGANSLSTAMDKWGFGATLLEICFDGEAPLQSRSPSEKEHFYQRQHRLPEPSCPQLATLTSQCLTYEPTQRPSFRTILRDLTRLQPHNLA

SMILES	Kd (TYK2 JH2; [2]) [nM]	IC50 [1, 3] [nM]	Kd (TYK2 JH2; [6]) [nM]	also measured
CNc1ncc(-c2nc3cc(O[C@H]4C[C@H](C#N)C4)ccc3o2)c2cc(NC(=O)C3CC3)ncc12 [Example 233, N-(5-(5-((1r,3r)-3-cyanocyclobutoxy)benzo[d]oxazol-2-yl)-8-(methylamino)-2,7-naphthyridin-3-yl)cyclopropanecarboxamide]	≤ 100	≤ 500		
CNc1ncc(-c2nc3ccc(N4CCCC(F)(F)C4)cn3n2)c2cc(NC(=O)C3CC3)ncc12 [Example 485, N-(5-(6-(3,3-difluoropiperidin-1-yl)-[1,2,4]triazolo[1,5-a]pyridin-2-yl)-8-(methylamino)-2,7-naphthyridin-3-yl)cyclopropanecarboxamide]	≤ 100	≤ 500		
CNc1ncc(-c2ccncc2)c2cc(NC(=O)C3CC3)ncc12 [Example 9]				Kd (TYK2 JH2; [4]): ≤ 100 nM; IC50 [1, 5]: > 500 nM
CNc1ncc(-c2nc3cc(C4CCOCC4)ccc3o2)c2cc(NC(=O)C3CC3)ncc12 [Example 448, N-(8-(methylamino)-5-(5-(tetrahydro-2H-pyran-4-yl)benzo[d]oxazol-2-yl)-2,7-naphthyridin-3-yl)cyclopropanecarboxamide]	≤ 100	≤ 500		
CNc1ncc(-c2c[nH]c3ncccc23)c2cc(NC(=O)C3CC3)ncc12 [Example 106, N-(8-(methylamino)-5-(1H-pyrrolo[2,3-b]pyridin-3-yl)-2,7-naphthyridin-3-yl)cyclopropanecarboxamide]				Kd (TYK2 JH2; [4]): ≤ 100 nM; IC50 [1, 5]: > 500 nM
CNc1ncc(-c2nc3ccc(OCC(C)(C)C#N)cn3n2)c2cc(NC(=O)C3CC3)ncc12 [Example 498, N-(5-(6-(2-cyano-2-methylpropoxy)-[1,2,4]triazolo[1,5-a]pyridin-2-yl)-8-(methylamino)-2,7-naphthyridin-3-yl)cyclopropanecarboxamide]	≤ 100	≤ 500		
CNc1ncc(-c2nc3cc(CS(C)(=O)=O)ccc3o2)c2cc(NC(=O)C3CC3)ncc12 [Example 257, N-(8-(methylamino)-5-(5-((methylsulfonyl)methyl)benzo[d]oxazol-2-yl)-2,7-naphthyridin-3-yl)cyclopropanecarboxamide]	≤ 100	≤ 500		
CNc1ncc(-c2ncsc2C)c2cc(NC(=O)C3CC3)ncc12 [Example 26, N-(8-(methylamino)-5-(5-methylthiazol-4-yl)-2,7-naphthyridin-3-yl)cyclopropanecarboxamide]				Kd (TYK2 JH2; [4]): ≤ 100 nM; IC50 [1, 5]: > 500 nM
CNc1ncc(-c2nc3c(OC4CC4)cccc3o2)c2cc(NC(=O)C3CC3)ncc12 [Example 222, N-(5-(4-cyclopropoxybenzo[d]oxazol-2-yl)-8-(methylamino)-2,7-naphthyridin-3-yl)cyclopropanecarboxamide]	≤ 100	≤ 500		
CNc1ncc(-c2nc3c(F)cc(C)cn3n2)c2cc(NC(=O)C3CC3)ncc12 [Example 505, N-(5-(8-fluoro-6-methyl-[1,2,4]triazolo[1,5-a]pyridin-2-yl)-8-(methylamino)-2,7-naphthyridin-3-yl)cyclopropanecarboxamide]	≤ 100	≤ 500		
CNc1ncc(-c2ccc3c(c2)OCCO3)c2cc(NC(=O)C3CC3)ncc12 [Example 108, N-(5-(2,3-dihydrobenzo[b][1,4]dioxin-6-yl)-8-(methylamino)-2,7-naphthyridin-3-yl)cyclopropanecarboxamide]				Kd (TYK2 JH2; [4]): ≤ 100 nM; IC50 [1, 5]: > 500 nM
CNc1ncc(-c2nc3ccc(N4CCO[C@H](C)C4)cc3o2)c2cc(NC(=O)C3CC3)ncc12 [Example 276, (R)—N-(8-(methylamino)-5-(6-(2-methylmorpholino)benzo[d]oxazol-2-yl)-2,7-naphthyridin-3-yl)cyclopropanecarboxamide]	≤ 100	≤ 500		
CNc1ncc(C#Cc2ccc(OC3CN(C(C)=O)C3)cn2)c2cc(NC(=O)C3(F)CC3)ncc12 [Example 736, N-(5-((5-((1-acetylazetidin-3-yl)oxy)pyridin-2-yl)ethynyl)-8-(methylamino)-2,7-naphthyridin-3-yl)-1-fluorocyclopropane-1-carboxamide]		≤ 500	≤ 100	
CNc1ncc(-c2nc3cc(N4CCC4)ccc3o2)c2cc(NC(=O)C3CC3)ncc12 [Example 277, N-(5-(5-(azetidin-1-yl)benzo[d]oxazol-2-yl)-8-(methylamino)-2,7-naphthyridin-3-yl)cyclopropanecarboxamide]	≤ 100	≤ 500		
CNc1ncc(-c2nc3ccc(N4CC(C)(O)C4)cn3n2)c2cc(NC(=O)C3CC3)ncc12 [Example 1037]			≤ 100	IC50 [1, 7]: ≤ 500 nM
CNc1ncc(C#Cc2ccc3ncn(CCCC#N)c3c2)c2cc(NC(=O)C3CC3)ncc12 [Example 694, N-(5-((1-(3-cyanopropyl)-1H-benzo[d]imidazol-6-yl)ethynyl)-8-(methylamino)-2,7-naphthyridin-3-yl)cyclopropanecarboxamide]		≤ 500	≤ 100	
CNc1ncc(-c2ccccc2)c2cc(NCC(F)(F)F)ncc12 [Example 94, N^1-methyl-4-phenyl-N^6-(2,2,2-trifluoroethyl)-2,7-naphthyridine-1,6-diamine]				Kd (TYK2 JH2; [4]): 100 to 1000 nM; IC50 [1, 5]: > 500 nM
CNc1ncc(-c2nc3ccc(N4CCOC(COC)C4)cn3n2)c2cc(NC(=O)C3CC3)ncc12 (single isomer, unassigned) [Example 1023]			≤ 100	IC50 [1, 7]: ≤ 500 nM
CNc1ncc(C2=CCOC2=O)c2cc(NC(=O)C3CC3)ncc12 [Example 85, N-(8-(methylamino)-5-(2-oxo-2,5-dihydrofuran-3-yl)-2,7-naphthyridin-3-yl)cyclopropanecarboxamide]				Kd (TYK2 JH2; [4]): 100 to 1000 nM; IC50 [1, 5]: > 500 nM
CNc1ncc(-c2nc3cc(N4CCOCC4)ccc3o2)c2cc(NC(=O)[C@@H]3C[C@@H]3C(F)(F)F)ncc12 (single isomer, unassigned) [Example 1066]			≤ 100	IC50 [1, 7]: ≤ 500 nM
CNc1ncc(-c2ccns2)c2cc(NC(=O)C3CC3)ncc12 [Example 84, N-(5-(isothiazol-5-yl)-8-(methylamino)-2,7-naphthyridin-3-yl)cyclopropanecarboxamide]				Kd (TYK2 JH2; [4]): ≤ 100 nM; IC50 [1, 5]: > 500 nM
CNc1ncc(-c2nc3cc(OC)ccc3o2)c2cc(NC(=O)[C@@H]3C[C@H]3F)ncc12 [Example 390, (1S,2R)-2-fluoro-N-(5-(5-methoxybenzo[d]oxazol-2-yl)-8-(methylamino)-2,7-naphthyridin-3-yl)cyclopropane-1-carboxamide]	≤ 100	≤ 500		
CNc1ncc(-c2nc3ccc(N4CCO[C@H](C(C)(C)O)C4)cn3n2)c2cc(NC(=O)C3CC3)ncc12 [Example 1028]			≤ 100	IC50 [1, 7]: ≤ 500 nM

More lines, main results first:

Kd (TYK2 JH2; [2]) [nM]	IC50 [1, 3] [nM]	Kd (TYK2 JH2; [6]) [nM]	SMILES	also measured
		≤ 100	CNc1ncc(-c2nc3ccc(N4CCOC(COC)C4)cn3n2)c2cc(NC(=O)C3CC3)ncc12 (single isomer, unassigned) [Example 1024]	IC50 ([1]; IFNa-stimulated pSTAT5 (Tyr694/699), read-out: Cellular_THP1_IFNa-pSTATS_TYK2): ≤ 500 nM
	≤ 500	≤ 100	[2H]C([2H])([2H])Nc1ncc(/C=C/c2ccc(OCCC#N)cc2)c2cc(NC(=O)[C@H]3C[C@H]3C)ncc12 [Example 799, (1S,2R)—N-(5-((E)-4-(2-cyanoethoxy)styryl)-8-((methyl-d3)amino)-2,7-naphthyridin-3-yl)-2-methylcyclopropane-1-carboxamide]	
	≤ 500	≤ 100	CNc1ncc(C#Cc2ccc(OCC(C)(C)O)cc2)c2cc(NC(=O)[C@H]3C[C@H]3C(F)F)ncc12 (single isomer, unassigned) [Example 757]	
	≤ 500	≤ 100	CNc1ncc(C#Cc2ncc(OC)cc2Cl)c2cc(NC(=O)C3CC3)ncc12 [Example 643, N-(5-((3-chloro-5-methoxypyridin-2-yl)ethynyl)-8-(methylamino)-2,7-naphthyridin-3-yl)cyclopropanecarboxamide]	
	≤ 500	≤ 100	CNc1ncc(C#Cc2cc3c(cc2F)nnn3C)c2cc(NC(=O)C3CC3)ncc12 [Example 685, N-(5-((5-fluoro-1-methyl-1H-benzo[d][1,2,3]triazol-6-yl)ethynyl)-8-(methylamino)-2,7-naphthyridin-3-yl)cyclopropanecarboxamide]	
	> 500	≤ 100	CNc1ncc(C2=CCC(c3ncnn3C)C2)c2cc(NC(=O)C3CC3)ncc12 (stereo not drawn) [Example 835, N-(5-(4-(1-methyl-1H-1,2,4-triazol-5-yl)cyclopent-1-en-1-yl)-8-(methylamino)-2,7-naphthyridin-3-yl)cyclopropanecarboxamide]	
	≤ 500	≤ 100	CNc1ncc(C#Cc2ccc(-n3ccnn3)cn2)c2cc(NC(=O)C3CC3)ncc12 [Example 952, N-(5-((5-(1H-1,2,3-triazol-1-yl)pyridin-2-yl)ethynyl)-8-(methylamino)-2,7-naphthyridin-3-yl)cyclopropanecarboxamide]	
